Measurements reported in article PMC6969166, “The molecular basis of pyrazinamide activity on Mycobacterium tuberculosis PanD” (Nature Communications, 2020).

Target: Mtb PanD Arg54 to alanine (Mycobacterium tuberculosis, UniProt P9WIL3, R54A)
Assay type: binding

## O=C(O)c1cnccn1 [POA, pyrazinoic acid]
  binding in ITC: no binding
